# In patent US20230365533A1, “BICYCLOHEPTANE PYRROLIDINE OREXIN RECEPTOR AGONISTS” (MERCK SHARP & DOHME CORP., priority 2021, published 2023):
# Molecular target: T1, human OX2R (Homo sapiens, UniProt O43614)
# T1 construct: expressed in transfected cells; host or cells: CHO (Chinese hamster ovary) cells, grown under G418 selection
# T1 sequence (O43614 1-444): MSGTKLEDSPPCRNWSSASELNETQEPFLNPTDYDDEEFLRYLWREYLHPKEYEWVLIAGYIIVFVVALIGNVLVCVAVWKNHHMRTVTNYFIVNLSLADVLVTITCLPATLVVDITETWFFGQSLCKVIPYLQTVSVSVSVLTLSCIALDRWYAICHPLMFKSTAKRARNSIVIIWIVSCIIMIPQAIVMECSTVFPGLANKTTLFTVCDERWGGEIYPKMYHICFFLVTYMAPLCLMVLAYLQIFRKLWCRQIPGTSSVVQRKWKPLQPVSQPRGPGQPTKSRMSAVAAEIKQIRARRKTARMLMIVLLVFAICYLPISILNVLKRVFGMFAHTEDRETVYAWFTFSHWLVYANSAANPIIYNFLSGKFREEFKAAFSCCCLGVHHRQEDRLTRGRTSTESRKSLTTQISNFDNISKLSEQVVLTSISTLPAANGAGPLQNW
# Assay: IPOne (IP-1) orexin receptor agonist assay in CHO cells expressing human OX2R
# Assay type: cell-based
# Conditions: IPOne assay, CHO cells expressing human OX2R, 2 hours incubation; read-out: hoX2R_IP IC50
# Description: The utility of the compounds in accordance with the present invention as orexin receptor OX1R and/or OX2R agonists may be readily determined without undue experimentation by methodology well known in the art. Both the OX1R and/or OX2R G-coupled protein receptors (GPCRs) couple through the Gaq signaling pathway, which ultimately promotes calcium mobilization via inositol triphosphate (IP3) production. The half-life of IP-3 is relatively short, being rapidly metabolized to inositol monophosphate (IP-1), which can be readily detected using a commercially available assay kit (IP-One; Cisbio; cat #621PAPEC) coupled with a cell line expressing the target receptor(s) of interest. The utility of the compounds in accordance with the present invention as orexin receptor OX1R and/or OX2R agonists may be determined utilizing this assay.
# In a typical experiment, the OX1 and OX2 receptor agonist activity is determined in accordance with the following general experimental method. Chinese hamster ovary (CHO) cells expressing human OX1R and/or the human OX2R were grown in Iscove's modified DMEM containing glutaMAX™, 1% G418, 100 U/mL penicillin, 100 μg/mL streptomycin and 10% heat-inactivated qualified fetal bovine serum (FBS). The OX2R cells were seeded at 10,000 cells/well/50 μL and the OX1R cells were seeded at 20,000 cells/well/50 μL into 384-well white tissue culture plates (Greiner; cat #781080). All cell/media reagents were from GIBCO-Invitrogen Corp. The seeded cell plate(s) were incubated at 37° C. with 5% CO2 and 85% humidity for 20-24 hours. On the day of the assay, assay-ready compound plates were prepared using an acoustic liquid handler (ECHO; Labcyte), which dispensed sufficient volume of test compound stock (10 mM in DMSO) or 100% DMSO to prepare 10 point, ½-log dilutions in a final volume of 202.5 nL/well in all test wells of a 384-well diamond plate (Labcyte). Following completion of assay-ready plates, importantly, the next three steps were performed with minimal delay: 1) 20 μl of 1×stimulation buffer was added to the compound plate using a Multidrop Combi (small cassette, Thermo Fisher Scientific cat #24073290); 2) culture medium was removed from the cell plate using the Bluewasher plate washer (gentle spin; BlueCatBio); 3) 14 μl of compound/stimulation buffer mixture was added to the cell plate using a Bravo liquid handler (Agilent) prior to incubating cell plates at 37° C. with 5% CO2 and 85% humidity for 1 or 2 hours (OX1R and OX2R, respectively). During this incubation, IP-one detection reagents were prepared (38:1:1 lysis buffer:D2:AB-cryptate reagents). Six μL of mixed detection reagents were added to the cell plate using a Multidrop Combi (small cassette, Thermo Fisher Scientific cat #24073290) and incubated 60 minutes at room temperature in the dark. Fluorescence signal was detected using an Envision plate reader (Perkin Elmer) [LANCE/DELFIA Dual Enh (Em: APC 665; Ex: Cy5 620)].
# For each compound, data were fit to a four parameter logistic fit (ActivityBase software) and the EC50 was reported as the inflection point of the resulting curve. Percent effect for each test compound was determined as the percentage of sample raw value/mean max effect, where the mean max effect was derived from the mean raw value of 32 control wells per assay plate (using Orexin A (cat #003-30) at 1 μM for human OX1R and a reference compound at 1 uM with 100% activity previously established by comparison to Orexin A for human OX2R). The intrinsic orexin receptor agonist activity of a compound which may be used in the present invention may be determined by these assays.
row,IC50 [nM],Structure (SMILES)
1,5.2,"CC(C)OC(=O)N1[C@H](C)C[C@H](NS(=O)(=O)N(C)C)[C@@H]1CO[C@@H]1CC[C@]2(c3ncccn3)C[C@@H]2C1 (single isomer, unassigned) [Example 170]"
2,10.8,"CC(C)OC(=O)N1[C@H](C)C[C@H](NS(=O)(=O)C(F)F)[C@@H]1COC1CCC2(c3ncc(Cl)cn3)CC2C1 (stereo partly drawn) [Example 82, isopropyl (2R,3S,5R)-2-(((6-(5-chloropyrimidin-2-yl)bicyclo[4.1.0]heptan-3-yl)oxy)methyl)-3-((difluoromethyl)sulfonamido)-5-methylpyrrolidine-1-carboxylate]"
3,4.1,"CC(C)OC(=O)N1CCC[C@H](NS(=O)(=O)C(F)(F)F)[C@@H]1COC1CC[C@@]2(c3ncc(F)cn3)CC2C1 (stereo partly drawn) [Example 123, isopropyl (2R,3S)-2-(((6-(5-fluoropyrimidin-2-yl)bicyclo[4.1.0]heptan-3-yl)oxy)methyl)-3-((trifluoromethyl)sulfonamido)piperidine-1-carboxylate]"
4,1.2,"CCS(=O)(=O)N[C@H]1C[C@@H](C(F)F)N(C(=O)OC)[C@H]1COC1CCC2(c3ncc(F)cn3)CC2C1 (stereo partly drawn) [Example 117, methyl (2R,3S,5S)-5-(difluoromethyl)-3-(ethylsulfonamido)-2-(((6-(5-fluoropyrimidin-2-yl)bicyclo[4.1.0]heptan-3-yl)oxy)methyl)pyrrolidine-1-carboxylate]"
5,2.3,"COC(=O)N1[C@H](C(F)F)C[C@H](NS(=O)(=O)C2CC2)[C@@H]1COC1CCC2(c3ncc(F)cn3)CC2C1 (stereo partly drawn) [Example 116, methyl (2R,3S,5S)-3-(cyclopropanesulfonamido)-5-(difluoromethyl)-2-(((6-(5-fluoropyrimidin-2-yl)bicyclo[4.1.0]heptan-3-yl)oxy)methyl)pyrrolidine-1-carboxylate]"
6,1.2,"COC(=O)N1[C@H](C)C[C@H](NS(=O)(=O)C(F)F)[C@@H]1CO[C@H]1CC[C@@]2(c3ncc(Cl)cn3)C[C@H]2C1 (single isomer, unassigned) [Example 78]"
7,179,"COC(=O)N1[C@H](C)C[C@H](NS(C)(=O)=O)[C@@H]1COC1CCC2(c3nccs3)CC2C1 (stereo partly drawn) [Example 149, methyl (2R,3S,5R)-5-methyl-3-(methylsulfonamido)-2-(((6-(thiazol-2-yl)bicyclo[4.1.0]heptan-3-yl)oxy)methyl)pyrrolidine-1-carboxylate]"
8,220,"COC(=O)N1[C@H](C)C[C@H](NS(C)(=O)=O)[C@@H]1COC1CCC2(c3ncc(F)c(C(F)F)n3)CC2C1 (stereo partly drawn) [Example 73, methyl (2R,3S,5R)-2-(((6-(4-(difluoromethyl)-5-fluoropyrimidin-2-yl)bicyclo[4.1.0]heptan-3-yl)oxy)methyl)-5-methyl-3-(methylsulfonamido)pyrrolidine-1-carboxylate]"
9,2.3,"CC(C)OC(=O)N1[C@H](C)C[C@H](NS(=O)(=O)N(C)C)[C@@H]1CO[C@H]1CC[C@@]2(c3ncccn3)C[C@H]2C1 (single isomer, unassigned) [Example 171]"
10,1.8,"COC(=O)N1[C@@H]2CCC[C@@H]2[C@H](NS(=O)(=O)C2CC2)[C@@H]1COC1CCC2(c3ncc(F)cn3)CC2C1 (stereo partly drawn) [Example 128, methyl (2R,3S,3aS,6aR)-3-(cyclopropanesulfonamido)-2-(((6-(5-fluoropyrimidin-2-yl)bicyclo[4.1.0]heptan-3-yl)oxy)methyl)hexahydrocyclopenta[b]pyrrole-1(2H)-carboxylate]"
11,4.5,"CC(C)OC(=O)N1[C@H](C)C[C@H](NS(=O)(=O)CF)[C@@H]1COC1CCC2(c3ncc(Cl)cn3)CC2C1 (stereo partly drawn) [Example 107, isopropyl (2R,3S,5R)-2-(((6-(5-chloropyrimidin-2-yl)bicyclo[4.1.0]heptan-3-yl)oxy)methyl)-3-((fluoromethyl)sulfonamido)-5-methylpyrrolidine-1-carboxylate]"
12,1.7,"COC(=O)N1[C@H](C)C[C@H](NS(=O)(=O)CF)[C@@H]1COC1CCC2(c3ncc(Cl)cn3)CC2C1 (stereo partly drawn) [Example 94, methyl (2R,3S,5R)-2-(((6-(5-chloropyrimidin-2-yl)bicyclo[4.1.0]heptan-3-yl)oxy)methyl)-3-((fluoromethyl)sulfonamido)-5-methylpyrrolidine-1-carboxylate]"

# Continued, molecule first:
row,Structure (SMILES),IC50 [nM]
1,"CC(F)COC(=O)N1[C@H](C)C[C@H](NS(C)(=O)=O)[C@@H]1CO[C@H]1CC[C@@]2(c3ncc(F)cn3)C[C@H]2C1 (stereo partly drawn) [Example 58, 2-fluoropropyl (2R,3S,5R)-2-((((1S,3S,6R)-6-(5-fluoropyrimidin-2-yl)bicyclo[4.1.0]heptan-3-yl)oxy)methyl)-5-methyl-3-(methylsulfonamido)pyrrolidine-1-carboxylate]",2
2,"COC(=O)N1[C@H](C)C[C@H](NS(=O)(=O)C(C)C)[C@@H]1CO[C@@H]1CC[C@]2(c3ncc(F)cn3)C[C@@H]2C1 [Example 46, methyl (2R,3S,5R)-2-((((1R,3R,6S)-6-(5-fluoropyrimidin-2-yl)bicyclo[4.1.0]heptan-3-yl)oxy)methyl)-5-methyl-3-((1-methylethyl)sulfonamido)pyrrolidine-1-carboxylate]",13.4
3,"COC(=O)N1[C@H](C)C[C@H](NS(=O)(=O)N2CCC2)[C@@H]1CO[C@@H]1CC[C@]2(c3ncc(F)cn3)C[C@@H]2C1 [Example 43, methyl (2R,3S,5R)-3-(azetidine-1-sulfonamido)-2-((((1R,3R,6S)-6-(5-fluoropyrimidin-2-yl)bicyclo[4.1.0]heptan-3-yl)oxy)methyl)-5-methylpyrrolidine-1-carboxylate]",49.3
4,"COC(=O)N1[C@H](C)C[C@H](NS(=O)(=O)C(F)F)[C@@H]1CO[C@H]1CC[C@@]2(c3ncccn3)C[C@H]2C1 (single isomer, unassigned) [Example 68]",1.5
5,"COC(=O)N1[C@H](C)C[C@H](NS(=O)(=O)C(F)F)[C@@H]1CO[C@@H]1CC[C@]2(c3ncccn3)C[C@@H]2C1 (single isomer, unassigned) [Example 69]",20.4
6,"CC(C)OC(=O)N1[C@H](C)C[C@H](NS(C)(=O)=O)[C@@H]1CO[C@H]1CC[C@@]2(c3ncc(F)cn3)C[C@H]2C1 (single isomer, unassigned) [Example 28]",3.4
7,"COC(=O)N1[C@H](C)C[C@H](NS(=O)(=O)N(C)C)[C@@H]1COC1CCC2(c3ncccn3)CC2C1 (stereo partly drawn) [Example 6, methyl (2R,3S,5R)-3-((N,N-dimethylsulfamoyl)amino)-5-methyl-2-(((6-(pyrimidin-2-yl)bicyclo[4.1.0]heptan-3-yl)oxy)methyl)pyrrolidine-1-carboxylate]",0.94
8,"C[C@@H]1C[C@H](NS(C)(=O)=O)[C@H](CO[C@H]2CC[C@@]3(c4ncc(F)cn4)C[C@H]3C2)N1C(=O)OCC(C)(F)F [Example 64, 2,2-difluoropropyl (2R,3S,5R)-2-((((1S,3S,6R)-6-(5-fluoropyrimidin-2-yl)bicyclo[4.1.0]heptan-3-yl)oxy)methyl)-5-methyl-3-(methylsulfonamido)pyrrolidine-1-carboxylate]",2.1
